# Assays:
# [1] = target: RSK1 (Homo sapiens, UniProt Q15418); experiment: RSK1 kinase assay; assay type: biochemical; settings: 10 μM compound; read-out: RSK1 percent of inhibition
# In short: (§1)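 Single-point radiometric kinase screen at 10 μM compound; ATP at KmATP, substrate 5-fold above Km, 1 h at room temperature, 33P counted on filter plates.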
# [2] = target: P56Lck (Homo sapiens, UniProt P06239); experiment: P56Lck kinase assay; assay type: biochemical; settings: 10 μM compound; read-out: P56Lck percent of inhibition
# In short: as §1
# [3] = target: InsR (Homo sapiens, UniProt P06213); experiment: InsR kinase assay; assay type: biochemical; settings: 10 μM compound; read-out: InsR percent of inhibition
# In short: as §1
# [4] = target: c-Src (Homo sapiens, UniProt P12931); experiment: c-Src kinase assay; assay type: biochemical; settings: 10 μM compound; read-out: c-Src percent of inhibition
# In short: as §1
# [5] = target: Jnk1a1 (Homo sapiens, UniProt P45983); experiment: Jnk1a1 kinase assay; assay type: biochemical; settings: 10 μM compound; read-out: Jnk1a1 percent of inhibition
# In short: as §1
# [6] = target: PDGFR-beta (Homo sapiens, UniProt P09619); experiment: PDGFR-beta kinase assay; assay type: biochemical; settings: 10 μM compound; read-out: PDGFR-beta percent of inhibition
# In short: as §1
# [7] = target: P70S6K (Homo sapiens, UniProt P23443); experiment: P70S6K kinase assay; assay type: biochemical; settings: 10 μM compound; read-out: P70S6K percent of inhibition
# In short: as §1
# [8] = target: SRPK1 (Homo sapiens, UniProt Q96SB4); experiment: SRPK1 kinase assay; assay type: biochemical; settings: 10 μM compound; read-out: SRPK1 percent of inhibition
# In short: as §1
# [9] = target: cMet (Homo sapiens, UniProt P08581); experiment: cMet kinase assay; assay type: biochemical; settings: 10 μM compound; read-out: cMet percent of inhibition
# In short: as §1
# [10] = target: GSK-3beta (Homo sapiens, UniProt P49841); experiment: GSK-3beta kinase assay; assay type: biochemical; settings: 10 μM compound; read-out: GSK-3beta percent of inhibition
# In short: as §1
# [11] = target: CDK2/CycA (Homo sapiens, UniProt P24941); experiment: CDK2/CycA kinase assay; assay type: biochemical; settings: 10 μM compound; read-out: CDK2/CycA percent of inhibition
# In short: as §1
# [12] = target: c-Raf (Homo sapiens, UniProt P04049); experiment: c-Raf kinase assay; assay type: biochemical; settings: 10 μM compound; read-out: c-Raf percent of inhibition
# In short: as §1
# [13] = target: CK1-alpha (Homo sapiens, UniProt P48729); experiment: CK1-alpha kinase assay; assay type: biochemical; settings: 10 μM compound; read-out: CK1-alpha percent of inhibition
# In short: as §1
# [14] = target: T1, IKK-beta (Homo sapiens, UniProt O14920); experiment: IKK-beta kinase assay; assay type: biochemical; settings: 10 μM compound; read-out: IKK-beta percent of inhibition
# T1 sequence (O14920 1-756): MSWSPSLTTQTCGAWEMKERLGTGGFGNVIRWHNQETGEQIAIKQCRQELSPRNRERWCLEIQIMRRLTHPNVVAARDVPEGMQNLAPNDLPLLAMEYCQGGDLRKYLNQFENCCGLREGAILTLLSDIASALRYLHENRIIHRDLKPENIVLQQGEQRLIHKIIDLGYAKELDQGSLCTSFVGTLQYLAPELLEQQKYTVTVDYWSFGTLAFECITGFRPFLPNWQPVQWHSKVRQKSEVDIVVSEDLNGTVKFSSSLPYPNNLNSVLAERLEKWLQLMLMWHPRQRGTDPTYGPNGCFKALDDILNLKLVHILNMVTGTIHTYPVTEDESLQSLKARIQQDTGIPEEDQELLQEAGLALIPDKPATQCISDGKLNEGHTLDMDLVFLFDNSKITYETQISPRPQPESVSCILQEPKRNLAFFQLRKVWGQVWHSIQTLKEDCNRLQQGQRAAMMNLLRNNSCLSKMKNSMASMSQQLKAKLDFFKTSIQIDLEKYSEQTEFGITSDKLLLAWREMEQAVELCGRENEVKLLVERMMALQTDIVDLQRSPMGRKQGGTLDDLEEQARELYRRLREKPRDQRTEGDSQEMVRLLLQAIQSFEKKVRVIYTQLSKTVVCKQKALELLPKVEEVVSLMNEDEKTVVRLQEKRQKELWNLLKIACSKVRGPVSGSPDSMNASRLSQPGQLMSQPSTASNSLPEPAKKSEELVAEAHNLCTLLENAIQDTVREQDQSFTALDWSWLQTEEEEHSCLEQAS
# In short: as §1
# [15] = target: ROCK2 (Homo sapiens, UniProt O75116); experiment: ROCK2 kinase assay; assay type: biochemical; settings: 10 μM compound; read-out: ROCK2 percent of inhibition
# In short: as §1
# [16] = target: MAPK-ERK1 (Homo sapiens, UniProt P27361); experiment: MAPK-ERK1 kinase assay; assay type: biochemical; settings: 10 μM compound; read-out: MAPK-ERK1 percent of inhibition
# In short: as §1
# [17] = target: Kit (Homo sapiens, UniProt P10721); experiment: Kit kinase assay; assay type: biochemical; settings: 10 μM compound; read-out: Kit percent of inhibition
# In short: as §1
# [18] = target: EGFR (Homo sapiens, UniProt P00533); experiment: EGFR kinase assay (33P-ATP filter plate); assay type: biochemical; settings: 10 μM compound; read-out: EGFR percent of inhibition
# In short: as §1
# [19] = target: Abl (Homo sapiens, UniProt P00519); experiment: Abl kinase assay; assay type: biochemical; settings: 10 μM compound; read-out: Abl percent of inhibition
# In short: as §1
# [20] = target: AKT1/PKBa (Homo sapiens, UniProt P31749); experiment: AKT1/PKBa kinase assay; assay type: biochemical; settings: 10 μM compound; read-out: AKT1/PKBa percent of inhibition
# In short: as §1
# Chain of RSK1 (Q15418 whole entry, species assumed): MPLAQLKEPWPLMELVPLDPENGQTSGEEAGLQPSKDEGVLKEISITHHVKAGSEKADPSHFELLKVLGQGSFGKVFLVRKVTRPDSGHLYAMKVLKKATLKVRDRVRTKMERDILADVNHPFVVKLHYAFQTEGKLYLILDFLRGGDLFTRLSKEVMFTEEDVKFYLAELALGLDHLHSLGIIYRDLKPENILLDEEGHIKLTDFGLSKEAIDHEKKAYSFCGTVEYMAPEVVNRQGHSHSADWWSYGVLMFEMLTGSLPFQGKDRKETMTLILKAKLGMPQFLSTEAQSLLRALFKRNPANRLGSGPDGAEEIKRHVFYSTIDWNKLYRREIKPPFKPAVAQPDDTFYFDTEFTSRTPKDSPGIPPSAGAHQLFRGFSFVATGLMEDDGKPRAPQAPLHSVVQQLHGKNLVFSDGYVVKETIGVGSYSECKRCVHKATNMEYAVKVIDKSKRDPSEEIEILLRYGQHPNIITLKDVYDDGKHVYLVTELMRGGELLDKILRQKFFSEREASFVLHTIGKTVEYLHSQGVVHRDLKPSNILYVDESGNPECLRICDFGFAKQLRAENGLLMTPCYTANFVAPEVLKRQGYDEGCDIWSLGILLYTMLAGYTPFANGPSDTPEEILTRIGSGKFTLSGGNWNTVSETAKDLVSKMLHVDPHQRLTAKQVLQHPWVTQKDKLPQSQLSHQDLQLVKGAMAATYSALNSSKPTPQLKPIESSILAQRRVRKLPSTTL
# Chain of Abl (P00519 whole entry, species assumed): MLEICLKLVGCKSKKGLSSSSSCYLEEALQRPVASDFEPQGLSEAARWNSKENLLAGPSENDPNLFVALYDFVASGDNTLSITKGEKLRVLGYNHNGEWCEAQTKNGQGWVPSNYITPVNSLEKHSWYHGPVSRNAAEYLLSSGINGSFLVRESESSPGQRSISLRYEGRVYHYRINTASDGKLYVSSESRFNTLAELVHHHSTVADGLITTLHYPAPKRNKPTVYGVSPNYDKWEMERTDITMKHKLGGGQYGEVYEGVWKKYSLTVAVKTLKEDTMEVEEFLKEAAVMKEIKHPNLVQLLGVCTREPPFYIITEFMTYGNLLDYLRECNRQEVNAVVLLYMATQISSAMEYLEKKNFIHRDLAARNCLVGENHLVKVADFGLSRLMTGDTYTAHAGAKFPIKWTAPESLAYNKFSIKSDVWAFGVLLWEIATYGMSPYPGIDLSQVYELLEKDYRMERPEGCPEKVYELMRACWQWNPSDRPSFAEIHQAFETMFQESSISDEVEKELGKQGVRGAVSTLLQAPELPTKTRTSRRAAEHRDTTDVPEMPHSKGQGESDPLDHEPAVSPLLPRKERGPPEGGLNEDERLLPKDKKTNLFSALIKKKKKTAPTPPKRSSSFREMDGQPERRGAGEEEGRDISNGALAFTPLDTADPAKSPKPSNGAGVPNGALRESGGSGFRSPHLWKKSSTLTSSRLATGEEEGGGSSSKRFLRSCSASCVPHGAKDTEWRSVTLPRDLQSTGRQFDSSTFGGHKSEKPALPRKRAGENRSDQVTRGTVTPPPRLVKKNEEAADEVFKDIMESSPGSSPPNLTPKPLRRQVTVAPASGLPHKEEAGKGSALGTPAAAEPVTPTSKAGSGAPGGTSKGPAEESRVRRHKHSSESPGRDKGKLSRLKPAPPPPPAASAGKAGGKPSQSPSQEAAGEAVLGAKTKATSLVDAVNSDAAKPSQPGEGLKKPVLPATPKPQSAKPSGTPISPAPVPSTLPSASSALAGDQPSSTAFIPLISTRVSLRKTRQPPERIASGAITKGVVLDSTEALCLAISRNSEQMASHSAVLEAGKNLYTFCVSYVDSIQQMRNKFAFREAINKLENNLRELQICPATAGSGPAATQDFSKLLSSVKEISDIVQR
# Chain of InsR (P06213 28-1382, species assumed): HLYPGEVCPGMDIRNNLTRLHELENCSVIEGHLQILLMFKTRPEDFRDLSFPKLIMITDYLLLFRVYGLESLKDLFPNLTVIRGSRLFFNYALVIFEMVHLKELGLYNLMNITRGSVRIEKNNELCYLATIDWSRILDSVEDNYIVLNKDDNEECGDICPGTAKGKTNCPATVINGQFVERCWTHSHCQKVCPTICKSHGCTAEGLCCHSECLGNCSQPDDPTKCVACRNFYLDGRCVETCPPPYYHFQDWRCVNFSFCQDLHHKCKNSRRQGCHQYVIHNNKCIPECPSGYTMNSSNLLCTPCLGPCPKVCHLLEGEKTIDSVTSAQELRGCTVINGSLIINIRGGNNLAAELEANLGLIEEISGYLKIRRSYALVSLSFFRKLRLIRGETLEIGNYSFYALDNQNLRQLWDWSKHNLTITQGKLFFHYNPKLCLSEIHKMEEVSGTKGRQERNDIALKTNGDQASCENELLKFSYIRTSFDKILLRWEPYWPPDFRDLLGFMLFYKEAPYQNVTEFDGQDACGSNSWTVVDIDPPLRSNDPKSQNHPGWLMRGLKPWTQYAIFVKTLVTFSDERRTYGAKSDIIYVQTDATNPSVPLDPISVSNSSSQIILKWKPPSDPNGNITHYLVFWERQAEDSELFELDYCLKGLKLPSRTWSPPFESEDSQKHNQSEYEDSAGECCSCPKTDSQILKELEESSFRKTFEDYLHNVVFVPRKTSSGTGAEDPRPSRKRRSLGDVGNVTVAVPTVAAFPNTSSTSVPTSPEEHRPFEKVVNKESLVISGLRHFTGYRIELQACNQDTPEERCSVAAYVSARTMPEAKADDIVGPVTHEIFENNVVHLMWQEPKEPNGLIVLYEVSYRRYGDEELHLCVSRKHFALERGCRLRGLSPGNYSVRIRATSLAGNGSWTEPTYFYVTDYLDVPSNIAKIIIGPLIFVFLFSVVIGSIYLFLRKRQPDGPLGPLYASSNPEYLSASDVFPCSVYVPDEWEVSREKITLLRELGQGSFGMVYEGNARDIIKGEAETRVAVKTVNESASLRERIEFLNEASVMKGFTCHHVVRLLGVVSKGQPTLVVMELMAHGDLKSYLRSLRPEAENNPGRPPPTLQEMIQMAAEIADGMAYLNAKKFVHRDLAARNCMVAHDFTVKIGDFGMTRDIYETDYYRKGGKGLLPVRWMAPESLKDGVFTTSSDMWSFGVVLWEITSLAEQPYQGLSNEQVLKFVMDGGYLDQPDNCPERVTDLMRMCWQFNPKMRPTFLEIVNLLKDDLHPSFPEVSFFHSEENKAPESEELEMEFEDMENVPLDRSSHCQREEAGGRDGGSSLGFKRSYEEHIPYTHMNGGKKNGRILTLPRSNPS
# Chain of Jnk1a1 (P45983 1-384 isoform P45983-2): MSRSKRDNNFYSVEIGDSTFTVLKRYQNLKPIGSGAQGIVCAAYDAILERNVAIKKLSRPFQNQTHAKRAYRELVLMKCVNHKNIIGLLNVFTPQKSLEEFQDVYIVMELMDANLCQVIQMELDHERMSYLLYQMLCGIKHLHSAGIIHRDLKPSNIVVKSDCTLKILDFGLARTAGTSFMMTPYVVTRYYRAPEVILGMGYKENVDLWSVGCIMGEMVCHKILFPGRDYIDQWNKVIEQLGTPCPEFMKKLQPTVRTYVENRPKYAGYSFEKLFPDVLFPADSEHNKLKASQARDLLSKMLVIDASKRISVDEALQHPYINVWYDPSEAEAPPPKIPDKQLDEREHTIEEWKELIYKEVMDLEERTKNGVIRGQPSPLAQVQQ
# Chain of SRPK1 (Q96SB4 whole entry, species assumed): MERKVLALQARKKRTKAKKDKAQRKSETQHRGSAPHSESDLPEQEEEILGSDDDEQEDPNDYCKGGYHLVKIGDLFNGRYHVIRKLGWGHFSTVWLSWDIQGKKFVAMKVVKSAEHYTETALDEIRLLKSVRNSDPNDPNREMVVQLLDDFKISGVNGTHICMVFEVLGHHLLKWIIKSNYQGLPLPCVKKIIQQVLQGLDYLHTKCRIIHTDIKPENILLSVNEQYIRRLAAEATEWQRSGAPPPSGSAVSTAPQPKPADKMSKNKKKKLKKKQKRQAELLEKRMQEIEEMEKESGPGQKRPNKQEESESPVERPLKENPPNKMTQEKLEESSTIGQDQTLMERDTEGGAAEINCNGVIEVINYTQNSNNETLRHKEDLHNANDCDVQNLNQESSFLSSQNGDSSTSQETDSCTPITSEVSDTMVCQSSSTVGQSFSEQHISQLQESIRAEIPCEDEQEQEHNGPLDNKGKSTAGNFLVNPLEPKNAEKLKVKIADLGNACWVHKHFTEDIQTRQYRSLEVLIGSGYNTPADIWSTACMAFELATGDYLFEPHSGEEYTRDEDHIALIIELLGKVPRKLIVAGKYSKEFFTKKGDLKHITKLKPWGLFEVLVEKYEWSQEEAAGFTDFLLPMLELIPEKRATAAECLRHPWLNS
# Chain of c-Raf (P04049 whole entry, species assumed): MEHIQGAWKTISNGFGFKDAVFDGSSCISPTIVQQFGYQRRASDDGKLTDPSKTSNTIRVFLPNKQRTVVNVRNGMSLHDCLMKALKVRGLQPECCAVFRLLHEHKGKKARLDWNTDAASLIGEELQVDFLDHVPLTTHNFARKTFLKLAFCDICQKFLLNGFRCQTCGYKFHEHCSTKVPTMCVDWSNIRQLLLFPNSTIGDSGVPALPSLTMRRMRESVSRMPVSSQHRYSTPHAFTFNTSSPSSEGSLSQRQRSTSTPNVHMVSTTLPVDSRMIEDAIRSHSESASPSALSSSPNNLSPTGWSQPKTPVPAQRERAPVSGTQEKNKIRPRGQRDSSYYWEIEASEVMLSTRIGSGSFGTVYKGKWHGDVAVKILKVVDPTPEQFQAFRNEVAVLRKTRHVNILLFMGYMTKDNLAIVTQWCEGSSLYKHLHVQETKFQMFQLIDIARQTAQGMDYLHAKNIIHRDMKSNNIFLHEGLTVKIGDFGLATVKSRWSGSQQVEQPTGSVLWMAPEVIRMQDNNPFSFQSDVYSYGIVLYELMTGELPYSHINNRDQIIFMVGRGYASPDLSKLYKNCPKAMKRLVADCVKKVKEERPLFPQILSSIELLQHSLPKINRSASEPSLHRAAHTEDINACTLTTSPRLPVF
SMILES,inhibition at 10 µM [1] [%],inhibition at 10 µM [2] [%],inhibition at 10 µM [3] [%],inhibition at 10 µM [4] [%],inhibition at 10 µM [5] [%],inhibition at 10 µM [6] [%],inhibition at 10 µM [7] [%],inhibition at 10 µM [8] [%],inhibition at 10 µM [9] [%],inhibition at 10 µM [10] [%],inhibition at 10 µM [11] [%],inhibition at 10 µM [12] [%],inhibition at 10 µM [13] [%],inhibition at 10 µM [14] [%],inhibition at 10 µM [15] [%],inhibition at 10 µM [16] [%],inhibition at 10 µM [17] [%],inhibition at 10 µM [18] [%],inhibition at 10 µM [19] [%],inhibition at 10 µM [20] [%],other results
"Fc1cccc(Nc2nc(C3CC3)nc3sc4ccccc4c23)c1 [Compound 16, (2-Cyclopropyl-benzo[4,5]thieno[2,3-d]pyrimidin-4-yl)-(3-fluoro-phenyl)-amine]",2,7,2,2,-4,-3,8,10,0,1,-2,-4,0,-4,9,6,-1,60,3,-7,melting point: 193 °C
"Clc1cccc(Nc2nc(C3CC3)nc3sc4ccccc4c23)c1 [Compound 17, (2-Cyclopropyl-benzo[4,5]thieno[2,3-d]pyrimidin-4-yl)-(3-chloro-phenyl)-amine]",-7,9,-5,1,-8,0,7,9,-5,3,-2,12,0,8,2,2,11,86,7,-1,melting point: 188 °C
"Brc1cccc(Nc2nc(C3CC3)nc3sc4ccccc4c23)c1 [Compound 18, (2-Cyclopropyl-benzo[4,5]thieno[2,3-d]pyrimidin-4-yl)-(3-bromo-phenyl)-amine]",-4,11,5,22,-7,0,2,12,-7,0,-2,-8,10,3,4,-6,5,87,-2,0,melting point: 180 °C
"Oc1cccc(Nc2nc(C3CC3)nc3sc4ccccc4c23)c1 [Compound 19, 3-(2-Cyclopropyl-benzo[4,5]thieno[2,3-d]pyrimidin-4-ylamino)-phenol]",-11,3,11,11,-2,-1,3,3,-12,7,-12,-4,9,12,7,2,3,54,3,-5,melting point: 222 °C
"COc1cccc(Nc2nc(C3CC3)nc3sc4ccccc4c23)c1 [Compound 20, (2-Cyclopropyl-benzo[4,5]thieno[2,3-d]pyrimidin-4-yl)-(3-methoxy-phenyl)-amine]",7,0,-12,23,-5,-1,9,18,-2,0,4,9,3,9,0,21,8,46,7,-2,melting point: 198 °C

# Reference: US8802849B2, “Tricyclic benzo[4,5]thieno-[2,3-d]pyrimidine-4-yl-amin derivatives, their salts, process for producing the compounds and their pharmaceutical use” (Vichem Chemie Kutató Kft., priority 2008, dated 2014)
